# In US6569832B1, “Inhibition of beta cell degeneration” (Novo Nordisk A/S, priority 1999, dated 2003):
# Legend:
# beta-cells [1] = test: volume fraction of beta-cells related to total pancreas volume in treated ZDF rats (point counting stereology); format: in vivo, male Zucker Diabetic Fatty fa/fa (ZDF) rat
# From the text: (§1) The male Zucker Diabetic Fatty fa/fa (ZDF) rat is a model of Type 2 diabetes. The rats are insulin resistant but normoglycemic from birth and they develop diabetes from about week 7 to week 10 of age. During the transitional period, the animals go through a state of impaired glucose tolerance. Although the animals are hyperinsulinemic before diabetes onset and during the early stages of diabetes, they later lose glucose-stimulated insulin secretion and finally become almost completely insulinopenic.
# We have studied the effects of Arg^34, Lys^26(N-ε-(γ-Glu(N-α-hexadecanoyl)))-GLP-1(7-37) therapy during a period of time when the animals would normally progress from having impaired glucose tolerance to having overt Type 2 diabetes. […]
# Neighbor sections were stained for insulin and the combination of glucagon-somatostatin-pancreatic polypeptide for the measurement of the relative mass of islet beta-cells and nonbeta-cells. […] The nonbeta-cells were stained with a mixture of monoclonal mouse anti-glucagon+rabbit anti-somatostatin+rabbit anti-pancreatic polypeptide, detected by biotinylated swine anti-multible Ig's, avidin peroxidase, and developed with DAB and CuSO4 to give a dark brown stain. […]
# neonatal rat islet cells = test: cytokine-induced apoptosis in neonatal rat islet cells (annexin V-FITC/PI flow cytometry); format: cell-based
# Experimental: Neonatal rats were sacrificed and pancreata were aseptically isolated. Islets of Langerhans were isolated by standard techniques. Intact islets were cultured in 6-well tissue culture plates at 750 islets/well (Nunc, Roskilde, Denmark) with or without 40 U/ml recombinant rat interleukin 1, 100 U/ml interferon-γ, and 100 U/ml tumor necrosis factor-α (all from Peprotech, London, UK) and the indicated doses of the GLP-1 derivative, Arg^34, Lys^26(N-ε-(γ-Glu(N-α-hexadecanoyl)))-GLP-1(7-37). After 24 hours of in vitro culture, single cell suspensions were obtained from the islets by gentle triturating in trypsin. After 2 rounds of washing, islet cells were reacted with annexin V-FITC and propedium iodide (PI) using a commercial staining kit according to the manufactures recommendations (Pharmingen, San Diego, Calif., USA). At the end of incubation the samples were analyzed by flow cytometry using a FACScalibur (Becton Dickinson, Mountain View, Calif., USA). Dead cells were excluded by gating on PI-negative cells, 25000 viable cells were acquired per sample. Data were analyzed using the CellQuest software (Becton Dickinson).
# beta-cells [2] = test: beta-cell proliferation rate (BrDU incorporation) in pancreas of treated ZDF rats; format: in vivo, male Zucker Diabetic Fatty fa/fa (ZDF) rat
# From the text: as §1
# We have studied the effects of Arg^34, Lys^26(N-ε-(γ-Glu(N-α-hexadecanoyl)))-GLP-1(7-37) therapy during a period of time when the animals would normally progress from having impaired glucose tolerance to having overt Type 2 diabetes. Three groups of male ZDF rats (Genetic Models Inc, Indianapolis, Ind., USA) were studied and dosed subcutaneously bi-daily with either vehicle (group A), 30 (group B) or 150 μg/kg (group C) of Arg^34, Lys^26(N-ε-(γ-Glu(N-α-hexadecanoyl)))-GLP-1(7-37), n=6 per group. Animals were between 7 and 8 weeks old when dosing was initiated, and fed glucose levels were not different between the groups before dosing began.
# Bromodeoxyuridine (BrDU) is incorporated in newly synthesized DNA and thus will label replicating cells. Six hours before sacrifice the rats were given an injection of 100 mg BrDU/kg intraperitoneally. […]
substance,measurement,setting,value
"Arg^34, Lys^26(N-ε-(γ-Glu(N-α-hexadecanoyl)))-GLP-1(7-37)",beta-cell fraction of the total pancreas compared to vehicle treated rats,beta-cells [1]; 30 ng/g for 6 weeks,significantly higher
same,"beta-cell fraction of the total pancreas, further increase over the 30 ng/g dose",beta-cells [1]; 150 ng/g,no further increase
same,reduction in the cytokine-induced apoptosis,"neonatal rat islet cells; 100 nM, 24 hours with interleukin 1 40 U/ml, interferon-γ 100 U/ml, tumor necrosis factor-α 100 U/ml",approximately 50%
same,block of cytokine-induced apoptosis in islet cells ex vivo,neonatal rat islet cells; 24 hour incubation with cytokine mix,able to block
same,effect of the compound itself on the level of islet cell apoptosis,"neonatal rat islet cells; without cytokine mix, 24 hours",no effect
same,beta-cell proliferation at the dose where volume of beta-cells increased,beta-cells [2]; 30 ng/g,proliferation was not seen
same,fraction of beta-cells that had incorporated BrDU (percentage of BrDU positive beta-cells),"beta-cells [2]; subcutaneously bi-daily 30 or 150 μg/kg vs vehicle, n=6 per group, BrDU 6 hours before sacrifice",dose dependent increase
